In assay [1] the test system is HRV1A.
Assay [2] deals with HRV1A. Briefly: microbe, parasite or virus in culture. Particulars: Human rhinovirus sp., M-HeLa, 7 h; for activity at 0.03 µM: read-out: HRV1A infection (dsRNA), 0.03 µM; for activity at 0.1 µM: read-out: HRV1A infection (dsRNA), 0.10 µM; for activity at 0.31 µM: read-out: HRV1A infection (dsRNA), 0.31 µM; for activity at 0.93 µM: read-out: HRV1A infection (dsRNA), 0.93 µM; for activity at 2.78 µM: read-out: HRV1A infection (dsRNA), 2.78 µM; for activity at 8.33 µM: read-out: HRV1A infection (dsRNA), 8.33 µM; for activity at 25 µM: read-out: HRV1A infection (dsRNA), 25.00 µM.

With `COc1ccccc1C(=O)Nc1ccc(C(F)(F)F)cc1Cl` [TVB-1323], the “antiviral activity against HRV1A (structure-activity study, in words)” value (shortened to “antiviral activity against HRV1A”) in assay [1] is reported as “reduced antiviral efficacy”. Besides, in assay [2], the activity at 0.03 µM amounted to 101%, the activity at 0.1 µM was 95%, the activity at 0.31 µM was 97% and the activity at 0.93 µM was found to be 97%. In assay [2], the activity at 2.78 µM came out at 106%, the activity at 8.33 µM amounted to 108% and the activity at 25 µM came to 113%.

With `COc1c(C)cccc1C(=O)Nc1ccc([N+](=O)[O-])cc1Cl` [TVB-1324], in assay [1], the “antiviral activity against HRV1A” value was “eliminated antiviral activity”. In assay [2], the activity at 0.03 µM was determined as 104%, the activity at 0.1 µM was found to be 105%, the activity at 0.31 µM worked out at 98% and the activity at 0.93 µM amounted to 99%. Besides, in assay [2], the activity at 2.78 µM is 88%, the activity at 8.33 µM came out at 94% and the activity at 25 µM worked out at 107%.

As for `COC(=O)c1ccc(Cl)c(NC(=O)c2ccccc2OC)c1` [TVB-1325], the “antiviral activity against HRV1A” value in assay [1] is recorded as “reduced antiviral efficacy”. In addition, in assay [2], the activity at 0.03 µM worked out at 91%, the activity at 0.1 µM worked out at 97%, the activity at 0.31 µM came out at 86% and the activity at 0.93 µM came out at 95%. Besides, in assay [2], the activity at 2.78 µM came out at 83%, the activity at 8.33 µM is 73% and the activity at 25 µM amounted to 80%.

For the molecule `CCC(=O)Nc1ccc(Cl)c(NC(=O)c2ccccc2OC)c1` [TVB-1327], the “antiviral activity against HRV1A” value in assay [1] is recorded as “reduced antiviral efficacy”. In assay [2], the activity at 0.03 µM came out at 118%, the activity at 0.1 µM worked out at 118%, the activity at 0.31 µM turned out to be 110% and the activity at 0.93 µM was found to be 107%. In assay [2], the activity at 2.78 µM stood at 96%, the activity at 8.33 µM is 107% and the activity at 25 µM was found to be 115%.

On to `CCOc1ccccc1C(=O)Nc1ccc([N+](=O)[O-])cc1Cl` [TVB-1328], for which the “antiviral activity against HRV1A” value in assay [1] was “eliminated antiviral activity”. Also, in assay [2], the activity at 0.03 µM was found to be 99%, the activity at 0.1 µM was 90%, the activity at 0.31 µM stood at 86% and the activity at 0.93 µM came out at 89%. Further, in assay [2], the activity at 2.78 µM worked out at 90%, the activity at 8.33 µM was determined as 95% and the activity at 25 µM was determined as 107%.

With `COc1ccc(Cl)cc1C(=O)Nc1cc([N+](=O)[O-])ccc1Cl` [TVB-1330], the “antiviral activity against HRV1A” value in assay [1] is “reduced antiviral efficacy”. In assay [2], the activity at 0.03 µM was 101%, the activity at 0.1 µM worked out at 103%, the activity at 0.31 µM stood at 99% and the activity at 0.93 µM was 97%. In addition, in assay [2], the activity at 2.78 µM was determined as 101%, the activity at 8.33 µM came out at 105% and the activity at 25 µM was determined as 111%.

Turning to `CCOc1ccccc1C(=O)Nc1ccc(Cl)cc1Cl` [TVB-1331], the “antiviral activity against HRV1A” value in assay [1] is recorded as “eliminated antiviral activity”. For the same molecule, in assay [2], the activity at 0.03 µM was found to be 119%, the activity at 0.1 µM came to 118%, the activity at 0.31 µM was 112% and the activity at 0.93 µM was found to be 107%. For the same molecule, in assay [2], the activity at 2.78 µM was determined as 108%, the activity at 8.33 µM came to 106% and the activity at 25 µM was determined as 113%.

Turning to `COc1ccccc1C(=O)Nc1ccc([N+](=O)[O-])cc1Cl` [TVB-1333], the “antiviral activity against HRV1A” value in assay [1] is listed as “eliminated antiviral activity”. Moreover, in assay [2], the activity at 0.03 µM turned out to be 112%, the activity at 0.1 µM was found to be 99%, the activity at 0.31 µM worked out at 107% and the activity at 0.93 µM worked out at 92%. For the same molecule, in assay [2], the activity at 2.78 µM was 84%, the activity at 8.33 µM turned out to be 157% and the activity at 25 µM is 207%.

The values are drawn from paper PMC3486884 (PLoS Pathogens, 2012).
